Marks after values point to notes of the source that are not given here.
What was measured:
Format in all cases: cell-based, Mouse
[1] = system: IL-6; test: IL-6 production (ELISA) in LPS-stimulated RAW264.7 cells; settings: 20, 40, and 80 μM; 2 h pretreatment, LPS 500 ng/mL 20 h; concentration-dependent
Protocol: (§1) Macrophages stimulated by pathogens and cytokines are activated and play an important role in regulating the immune response, inflammatory response, and metabolism. LPS-activated RAW264.7 cells were treated with 20, 40, or 80 μM of coumarin derivative 2 and cultured for 24 h, and the levels of TNF-α and IL-6 in the culture medium were analyzed.
(§2) RAW264.7 cells were seeded into 96-well plates and cultured for 24 h. After 2 h of treatment with 20, 40, or 80 μM of coumarin compound derivative 2, the cells were incubated with LPS (500 ng/mL) for 20 h. ELISA kits (R & D Systems, Minneapolis, MN, USA) were used to collect and analyze the cell supernatants for TNF-α and IL-6.
(§3) Figure 3 Effects of coumarin derivative 2 on IL-6 and TNF-α production and mRNA expression in LPS-stimulated RAW264.7 cells. (a) Effect of coumarin derivative 2 on TNF-α and IL-6 production in RAW264.7 cells. The RAW264.7 cells (1 × 10^5/well, 96-well plates) were pretreated with coumarin derivative 2 (20, 40, and 80 μM) for 2 h and incubated with LPS (500 ng/mL) for 20 h. An ELISA kit was used to analyze cell supernatants for TNF-α and IL-6. (b) Effect of coumarin derivative 2 on mRNA expression of IL-6 and TNF-α in RAW264.7 cells. […] IL-6 and TNF-α mRNA expression levels were measured via a real-time quantitative reverse transcription polymerase chain reaction.

[2] = system: LPS-stimulated RAW264.7 cells; test: NO production (Griess reagent) in LPS-stimulated RAW264.7 cells
Protocol: A high concentration of NO promotes the synthesis of inflammatory mediators, leading to an inflammatory response, and has been reported to be a cause of various immune diseases. Therefore, this study was conducted to investigate the effect of coumarin derivatives on the production of NO induced by LPS stimulation in RAW264.7 cells. The cells were treated with coumarin derivatives at concentrations of 20, 40, and 80 μM for 2 h. Then, the cells were treated with LPS. After 20 h, the culture supernatant was recovered, and the amount of NO was measured. […] The anti-inflammatory activity of these derivatives depended on the position of the substituted group rather than the electron density of the substituted group.
The Griess reagent was used to measure NO production. RAW264.7 cells were seeded into a 96-well plate and cultured for 24 h. The cells were treated with 20, 40, and 80 μM of coumarin derivatives, cultured for 2 h, and then cultured with LPS (500 ng/mL) for 20 h. The same amount of cell supernatant and Griess reagent were used for the reaction, and absorbance was measured at 540 nm.

[3] = system: TNF-α; test: TNF-α production (ELISA) in LPS-stimulated RAW264.7 cells; settings: 20, 40, and 80 μM; 2 h pretreatment, LPS 500 ng/mL 20 h; concentration-dependent
Protocol: as §1, §2, §3

[4] = system: IL-6 mRNA; test: IL-6 mRNA expression (qRT-PCR) in LPS-stimulated RAW264.7 cells; settings: 20, 40, and 80 μM; 2 h pretreatment, LPS 500 ng/mL 6 h
Protocol: RAW264.7 cells were seeded into a 6-well plate (2 × 10^6 cells/well) and cultured for 24 h. The cells were treated with coumarin derivative 2 at 20, 40, and 80 μM and cultured for 2 h and with LPS (500 ng/mL) for 6 h.
The cells were washed with phosphate-buffered saline (PBS) and lysed with the RNeasy Mini kit (Qiagen, Hilden, Germany) for RNA isolation. RNA was converted to cDNA using the AccuPower reverse transcriptase Premix Kit (Bioneer, Daejeon, Republic of Korea). A Power SYBR Green PCR Master Mix (Applied Biosystems, Waltham, MN, USA) was used to perform polymerase chain reaction amplification. Amplification conditions were selected within the Quant 3 PCR system (Applied Biosystems). The data were normalized to the amount of glyceraldehyde 3-phosphate dehydrogenase.
Figure 3 Effects of coumarin derivative 2 on IL-6 and TNF-α production and mRNA expression in LPS-stimulated RAW264.7 cells. (a) Effect of coumarin derivative 2 on TNF-α and IL-6 production in RAW264.7 cells. The RAW264.7 cells (1 × 10^5/well, 96-well plates) were pretreated with coumarin derivative 2 (20, 40, and 80 μM) for 2 h and incubated with LPS (500 ng/mL) for 20 h. An ELISA kit was used to analyze cell supernatants for TNF-α and IL-6. […] IL-6 and TNF-α mRNA expression levels were measured via a real-time quantitative reverse transcription polymerase chain reaction.

[5] = system: p38; test: LPS-induced phosphorylation of p38 (immunoblotting) in RAW264.7 cells; settings: 20, 40, and 80 μM pretreatment 2 h; LPS 500 ng/mL 30 min
Protocol: RAW264.7 cells were seeded into 6-well plates (2 × 10^6 cells/well) and incubated for 24 h. The cells were incubated with 20, 40, and 80 μM of coumarin derivative 2 for 2 h, and then LPS (500 ng/mL) was added for 30 min (for phosphorylation of ERK, JNK, p38, and p65) and 24 h (for protein expression of iNOS).
The cells were washed with PBS and lysed with radioimmunoprecipitation assay buffer containing 1 mM dithiothreitol (Wako, Tokyo, Japan), phosphatase inhibitor cocktail, 1 mM phenylmethylsulfonylfluoride, 1 mM sodium orthovanadate (Sigma), and 10 mM β-glycerophosphate (Sigma). The extracted proteins were centrifuged at 13,000× g rpm, separated via sodium dodecyl sulfate polyacrylamide gel electrophoresis, and transferred to polyvinylidene fluoride membranes. Nonspecific proteins were blocked by adding 5% skim milk. After blocking, primary antibodies were incubated overnight at 4 °C. After washing with the PBS-T buffer, the secondary antibodies were treated at room temperature for 2 h. For detection, the antibodies were developed with Super Signal® West Femto Substrate (ThermoFisher, Waltham, MN, USA) and analyzed on a Fusion Solo Chemiluminescence System (Vilber Lourmat, Paris, France) ECL detection system.
Figure 5 Inhibitory effects of coumarin derivative 2 on LPS-induced phosphorylation of MAPKs and NF-κB p65 in RAW264.7 cells. […]

With `N#CC1=C(N)Oc2c(c(=O)oc3ccccc23)C1c1cccc(F)c1` (stereo not drawn) [Coumarin derivative 2] the “LPS-induced IL-6 level” value [1] was “significantly reduced”, the “NO production, Average” value ([2]; 20 μM for 2 h, then LPS (500 ng/mL) 20 h, LPS alone 25.9, control 3.1) was 22.53 µM and the “NO production, Average (μM)” value ([2]; 40 μM for 2 h, then LPS (500 ng/mL) 20 h, LPS alone 25.9, control 3.1) was 15.24 *** μM. The “NO production, Average (μM)” value ([2]; 80 μM for 2 h, then LPS (500 ng/mL) 20 h, LPS alone 25.9, control 3.1) was 10.17 *** μM, the “Anti-inflammatory effect (inhibition of NO secretion), in words” value ([2]; 20, 40, and 80 μM, compared with LPS-only treatment) was “inhibited NO secretion in a concentration-dependent manner” and the IC50 ([2]; Mus musculus, RAW264.7, read-out: IC50 of NO production inhibition) was 33.4 µM. For the same compound, the “LPS-induced TNF-α level” value [3] was “significantly reduced”, the “IL-6 mRNA expression” value [4] was “significantly suppressed” and the “Phosphorylation of p38” value [5] was “inhibited”.

— article PMC10298626 (International Journal of Molecular Sciences, 2023)
